Results from ChEMBL document CHEMBL3886494, “2′-cyano substituted nucleoside derivatives and methods of use thereof for the treatment of viral diseases” (2016).

Target: Genome polyprotein (Hepatitis C virus genotype 1b (isolate BK) (HCV), UniProt P26663)
Assay: Inhibition Assay: To measure inhibition of the enzymatic activity of the HCV NS5B RNA-dependent RNA polymerase by the nucleoside triphosphate compounds of the present invention, a radiolabeled nucleotide incorporation assay was used. This assay is a modified version of the assay described in International Publication No. WO2002/057287. Briefly, 50 uL reactions containing 20 mM HEPES (pH 7.3); 7.5 mM DTT; 20 units/ml RNasIN; 1 uM each of ATP, GTP, UTP and CTP; 20 uCi/mL [33P]-CTP; 10 mM MgCl; 60 mM NaCl; 100 ug/ml BSA; 0.021 uM DCoH heteropolymer RNA template; and 5 nM NS5B (1b-BKΔ55) enzyme were incubated at room temperature for 1 hour. The assay was then terminated by the addition of 500 mM EDTA (50 uL). The reaction mixture was transferred to a Millipore DE81 filter plate and the incorporation of labeled CTP is determined using Packard TopCount. Compound IC50 values can then be calculated from experiments with 10 serial 3-fold dilutions of the inhibitor in duplicate.

Genome polyprotein, sequence (P26663 2420-3010 limits assumed): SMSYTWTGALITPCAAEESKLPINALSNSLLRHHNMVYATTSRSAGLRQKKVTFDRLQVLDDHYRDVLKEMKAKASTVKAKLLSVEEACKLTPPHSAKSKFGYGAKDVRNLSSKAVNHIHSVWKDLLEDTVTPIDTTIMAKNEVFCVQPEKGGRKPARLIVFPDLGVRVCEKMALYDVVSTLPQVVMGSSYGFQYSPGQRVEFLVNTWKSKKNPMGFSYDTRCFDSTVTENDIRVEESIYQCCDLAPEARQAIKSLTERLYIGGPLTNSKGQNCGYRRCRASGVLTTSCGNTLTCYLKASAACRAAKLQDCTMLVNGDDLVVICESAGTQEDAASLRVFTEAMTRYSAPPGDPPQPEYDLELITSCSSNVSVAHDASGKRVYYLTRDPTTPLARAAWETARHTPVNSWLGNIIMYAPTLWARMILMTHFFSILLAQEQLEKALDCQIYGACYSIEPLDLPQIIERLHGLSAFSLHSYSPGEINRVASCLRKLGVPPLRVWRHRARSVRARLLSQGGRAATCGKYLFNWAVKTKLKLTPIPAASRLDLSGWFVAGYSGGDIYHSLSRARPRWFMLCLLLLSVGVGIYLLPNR

`C[C@@]1(C#N)[C@@H](c2cnc3c(N)ncnn23)O[C@@H](COP(=O)(O)OP(=O)(O)OP(=O)(O)O)[C@@H]1O` showed an IC50 of 50 nM.

In the case of `CC1(C#N)[C@@H](O)[C@H](COP(=O)(O)OP(=O)(O)OP(=O)(O)O)O[C@]1(C#N)c1cnc2c(=O)[nH]cnn12` (some centres not stated), the IC50 is reported as greater than 200000 nM.

Work on `CO[C@]1(c2cnc3c(N)ncnn23)O[C@@H](COP(=O)(O)OP(=O)(O)OP(=O)(O)O)[C@H](O)C1(C)C#N` (some centres not stated) yielded an IC50 of 3800 nM.

`C[C@]1(C#N)[C@H](O)[C@H](COP(=O)(O)OP(=O)(O)OP(=O)(O)O)O[C@]1(C#N)c1ccc2c(N)ncnn12` showed an IC50 of 1200 nM.

For `CO[C@]1(c2ccc3c(N)ncnn23)O[C@@H](COP(=O)(O)OP(=O)(O)OP(=O)(O)O)[C@H](O)[C@]1(C)C#N`, the IC50 was 87 nM.

`C[C@@]1(C#N)[C@H](O)[C@@H](COP(=O)(O)OP(=O)(O)OP(=O)(O)O)O[C@H]1c1ccc2c(N)ncnn12` gave an IC50 of 3 nM.

Compound `CC1(C#N)[C@H](O)[C@@H](COP(=O)(O)OP(=O)(O)OP(=O)(O)O)O[C@@]1(C#N)c1cnc2c(N)ncnn12` (some centres not stated) has an IC50 of 87000 nM.
